# Laboratory results as given in the supplement of paper PMC10307832.
# Experiments:
# Test in all cases: relative viability (nuclei count vs DMSO), 5 days (fraction); higher = more cells survive
# [1] = compound: CCC1=CN=CN=C1N2CCN(CC2)CC3=NC4=C(N3)C=C(C=C4)C(F)(F)F + C[C@]1(O)C[C@@H](c2nc(-c3ccc4ccc(-c5ccccc5)nc4c3)c3c(N)nccn32)C1 [Linsitinib] (partner 1 µM)
# Procedure, shortened: (§1)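 Dosing by pin tool came one day after lung cancer cell lines were seeded in 1536-well plates, using either one drug or a fixed anchor-drug dose plus five library-drug doses (not always all listed) in √10 steps. After 5 days, nuclei were counted on 4× images. Relative viability is treated-well nuclei count divided by vehicle-well nuclei count, and values are medians of duplicate plates.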
# [2] = compound: CCn1c(-c2nonc2N)nc2cnc(Oc3cccc(NC(=O)c4ccc(OCCN5CCOCC5)cc4)c3)cc21 + COc1cc2c(Oc3ccc(NC(=O)C4(C(=O)Nc5ccc(F)cc5)CC4)cc3F)ccnc2cc1OCCCN1CCOCC1 [Foretinib] (partner 0.25 µM)
# Procedure, shortened: as §1
# [3] = compound: CCn1c(-c2nonc2N)nc2cnc(Oc3cccc(NC(=O)c4ccc(OCCN5CCOCC5)cc4)c3)cc21 + Nc1ncn([C@H]2C[C@H](O)[C@@H](CO)O2)c(=O)n1 [Decitabine] (partner 2 µM)
# Procedure, shortened: as §1
# Mirin + Alpelisib = compound: N=C1NC(=O)/C(=C/c2ccc(O)cc2)S1 [Mirin] + Cc1nc(NC(=O)N2CCC[C@H]2C(N)=O)sc1-c1ccnc(C(C)(C)C(F)(F)F)c1 [Alpelisib] (partner 2 µM)
# Procedure, shortened: as §1
Cell Line,relative viability ([1]; first compound 0.04 µM),relative viability ([1]; first compound 0.1265 µM),relative viability ([1]; first compound 0.4 µM),relative viability ([1]; first compound 1.265 µM),relative viability ([1]; first compound 4 µM),relative viability ([2]; first compound 0.04 µM),relative viability ([2]; first compound 0.1265 µM),relative viability ([2]; first compound 0.4 µM),relative viability ([2]; first compound 1.265 µM),relative viability ([2]; first compound 4 µM),relative viability ([3]; first compound 0.04 µM),relative viability ([3]; first compound 0.1265 µM),relative viability ([3]; first compound 0.4 µM),relative viability ([3]; first compound 1.265 µM),relative viability ([3]; first compound 4 µM),relative viability (Mirin + Alpelisib; first compound 0.25 µM),relative viability (Mirin + Alpelisib; first compound 0.7906 µM),relative viability (Mirin + Alpelisib; first compound 2.5 µM),relative viability (Mirin + Alpelisib; first compound 7.906 µM),relative viability (Mirin + Alpelisib; first compound 25 µM)
NCI-H838,0.991,0.912,0.941,0.916,1.05,0.771,0.7,0.562,0.378,0.371,0.422,0.393,0.303,0.331,0.271,0.966,1,0.961,1.03,0.965
HARA,0.915,0.832,0.919,0.733,0.831,1.13,1.09,0.906,0.939,0.883,0.598,0.665,0.684,0.283,0.206,0.889,0.968,0.858,0.805,0.612
NCI-H23,0.681,0.689,0.59,0.623,0.638,1.05,0.909,0.978,0.853,0.862,0.362,0.342,0.334,0.234,0.263,0.655,,0.723,0.642,0.442
CAL-12T,0.744,0.771,0.731,0.754,0.901,1.42,1.3,1.28,0.793,0.51,,,,,,1,1.36,1.15,1.23,1.34
NCI-H2342,,,,,,1.16,1.18,1.01,0.771,0.917,0.664,0.755,0.814,0.579,0.687,,,,,
SW 900,,,,,,1.04,0.977,0.91,0.995,0.886,0.412,0.453,0.42,0.442,0.456,,,,,
IA-LM,0.664,0.617,0.568,0.45,0.464,1.65,1.39,1.13,1.06,0.898,,,,,,0.668,0.768,0.797,0.434,0.812
NCI-H1792,0.522,0.543,0.497,0.424,0.511,,,,,,0.45,0.637,0.461,0.433,0.372,0.743,0.691,0.81,0.613,0.641
EBC-1,0.996,0.811,0.782,0.759,0.897,0.0933,0.0951,0.0949,0.0808,0.0597,,,,,,0.952,0.984,0.862,0.587,0.553
NCI-H1650,,,,,,1.19,1.32,1.49,1.23,0.969,0.504,0.282,0.348,0.604,0.478,,,,,
NCI-H1563,1.27,1.24,1.27,1.18,1.1,0.792,0.786,0.769,0.85,0.666,,,,,,0.918,0.958,0.92,0.937,0.833
NCI-H1648,,,,,,,,,,,0.55,0.65,0.85,0.695,0.675,,,,,
NCI-H1299,1.05,0.935,0.979,0.968,0.955,1.03,1.06,0.969,0.858,0.789,,,,,,1.01,1.16,1.06,0.622,1.21
NCI-H1623,,,,,,1.08,0.975,0.779,0.727,0.897,,,,,,,,,,
NCI-H1703,0.595,0.669,0.851,0.473,0.771,0.312,0.326,0.332,0.337,0.264,,,,,,0.363,0.259,0.314,,0.213
NCI-H2170,,,,,,1,0.99,0.997,0.939,0.848,0.473,0.494,0.494,0.474,0.431,0.792,0.83,0.909,0.714,0.699
NCI-H2228,0.343,0.629,0.814,0.576,0.689,1.28,0.946,1.03,0.744,0.731,,,,,,0.711,0.906,0.681,1.05,0.636
HCC-44,0.652,0.648,0.666,0.643,0.634,,,,,,0.868,1.06,0.738,0.728,0.429,0.852,0.879,0.806,0.762,0.705
NCI-H522,,,,,,,,,,,0.672,0.819,0.698,0.648,0.621,,,,,
Calu-6,0.883,0.851,0.871,0.819,1.02,1.03,0.832,0.84,0.568,0.507,,,,,,0.922,1.07,1.02,0.831,0.769
ChaGo-K-1,,,,,,0.97,0.942,0.908,0.769,0.856,0.582,0.423,0.525,0.515,0.526,,,,,
